# Experimental data as given in ChEMBL document CHEMBL5137130, “Highly N-Methylated Peptides from the Antarctic Sponge Inflatella coelosphaeroides Are Active against Plasmodium falciparum” (J Nat Prod, 2022).
# Where a SMILES comes first, the peptide text is derived from it. [ ]: non-standard residue; d: D form. The star is where a group is joined. Phe(Nα-CONH2) = NC(=O)N[C@@H](Cc1ccccc1)C(=O)*; NMeI = CC[C@H](C)[C@H](NC)C(=O)O; X1 = CN(/C=C\c1c[nH]c2ccccc12)*; NMeL = CN[C@@H](CC(C)C)C(=O)O; NMeV = CN[C@H](C(=O)O)C(C)C; NMeA = CN[C@@H](C)C(=O)O; For = O=C*
# Legend:
# [1] = system: Plasmodium falciparum; test: Antimalarial activity against blood stage chloroquine-sensitive Plasmodium falciparum NF54 assessed as reduction in parasite growth incubated for 72 hrs by SYBR Green dye based fluorescence assay; assay type: functional, organism-based; conditions: NF54, 72 h
# [2] = system: Plasmodium falciparum; test: Antimalarial activity against blood stage chloroquine-resistant Plasmodium falciparum Dd2 assessed as reduction in parasite growth incubated for 72 hrs by SYBR Green dye based fluorescence assay; assay type: functional, organism-based; conditions: Dd2, 72 h
# [3] = system: Plasmodium falciparum; test: Antimalarial activity against blood stage chloroquine-sensitive Plasmodium falciparum 3D7 assessed as reduction in parasite growth incubated for 72 hrs by SYBR Green dye based fluorescence assay; assay type: functional, organism-based; conditions: 3D7, 72 h
# [4] = Cytotoxicity against mouse J774 cells assessed as reduction in cell viability incubated for 68 hrs by CellTiter96 Aqueous One Solution Cell Proliferation Assay; assay type: toxicity, cell-based
Structure (SMILES),IC50 [1] [µM],IC50 [2] [µM],IC50 [3] [µM],IC50 at 68 h [4] [µM]
CC[C@H](C)[C@@H](C(=O)N(C)[C@@H](C)C(=O)N(C)[C@H](C(N)=O)C(C)C)N(C)C(=O)[C@H]([C@@H](C)CC)N(C)C(=O)[C@H](C)N(C)C(=O)[C@H](C(C)C)N(C)C(=O)[C@H](C)N(C)C(=O)[C@@H](NC(C)=O)C(C)C (Ac-V[NMeA][NMeV][NMeA][NMeI][NMeI][NMeA][NMeV]-NH2),> 10,> 10,> 10,> 20
CC[C@H](C)[C@@H](C(=O)N(C)/C=C\c1c[nH]c2ccccc12)N(C)C(=O)[C@H](C(C)C)N(C)C(=O)[C@H](C(C)C)N(C)C(=O)[C@H](CC(C)C)N(C)C(=O)[C@@H]1CCCN1C(=O)[C@H](Cc1ccccc1)NC(=O)[C@H](Cc1ccccc1)NC(C)=O (Ac-FFP[NMeL][NMeV][NMeV][NMeI]-X1),3.93,3.3,8.65,> 20
CC[C@H](C)[C@@H](C(N)=O)N(C)C(=O)[C@H](C(C)C)N(C)C(=O)[C@H](CC(C)C)N(C)C(=O)[C@H](Cc1ccccc1)N(C)C(=O)[C@H](Cc1ccccc1)NC=O,2.61,1.72,2.1,> 20
CC[C@H](C)[C@@H](C(=O)N(C)[C@H](C(=O)NC)[C@@H](C)CC)N(C)C(=O)[C@H](C(C)C)N(C)C(=O)[C@H](C)N(C)C(=O)[C@H](C(C)C)N(C)C(=O)[C@H](C(C)C)N(C)C(=O)[C@@H](NC=O)C(C)C (For-V[NMeV][NMeV][NMeA][NMeV][NMeI][NMeI]-NHMe),> 10,4.37,> 10,> 20
CC[C@H](C)[C@@H](C(=O)NC)N(C)C(=O)[C@H](C)N(C)C(=O)[C@H](C(C)C)N(C)C(=O)[C@H](C(C)C)N(C)C(=O)[C@H](C)N(C)C(=O)[C@H](C(C)C)N(C)C(=O)[C@H](C(C)C)N(C)C(=O)[C@H](C)N(C)C(=O)[C@H](C)NC(C)=O (Ac-A[NMeA][NMeV][NMeV][NMeA][NMeV][NMeV][NMeA][NMeI]-NHMe),> 10,> 10,> 10,> 20
CNC(=O)[C@H](C(C)C)N(C)C(=O)[C@H](C(C)C)N(C)C(=O)[C@H](C(C)C)N(C)C(=O)[C@H](C)N(C)C(=O)[C@H](C)N(C)C(=O)[C@H](CC(C)C)N(C)C(=O)[C@H](C(C)C)N(C)C(=O)[C@H](Cc1ccccc1)NC(N)=O ({Phe(Nα-CONH2)}-[NMeV][NMeL][NMeA][NMeA][NMeV][NMeV][NMeV]-NHMe),3.05,2.02,> 10,> 20
CNC(=O)[C@H](C(C)C)N(C)C(=O)[C@H](C(C)C)N(C)C(=O)[C@H](C(C)C)N(C)C(=O)[C@H](C)N(C)C(=O)[C@H](C)N(C)C(=O)[C@H](CC(C)C)N(C)C(=O)[C@H](C(C)C)N(C)C(=O)[C@H](Cc1ccccc1)NC=O (For-F[NMeV][NMeL][NMeA][NMeA][NMeV][NMeV][NMeV]-NHMe),3.73,1.07,2.52,> 20
